Source: patent publication US8673914B2, “Use of phosphodiesterase inhibitors for treating multidrug resistance” (St. John's University, priority 2011, dated 2014)
Marks after values point to notes of the source that are not given here.

How the values were obtained:
[1] = test system: KB-3-1; experiment: MTT cytotoxicity/reversal assay (Example 1); format: cell-based, human
Experimental: (§1) The KB-C2 and KB-3-1 were kindly provided by Dr. Akiyama (Kagoshima University, Japan). HEK293-pcDNA3.1 and wild-type HEK/ABCG2 transfected cells were established by selection with G418 after transfecting HEK293 with either (1) empty pcDNA3.1 vector or (2) pcDNA3.1 vector containing full length of ABCG2 coding arginine (R) at amino acid position 482, and were then cultured in a medium with 2 mg/ml of G418 (ABCG2-482-R2 cells). Similarly, the HEK/MRP1 (ABCC1) and HEK/ABCB1 cells were generated by transfecting the HEK293 cells with either the MRP1 expression vector or the ABCB1 expression vector. All of the cell lines were grown in Dulbecco's modified Eagle's medium (DMEM) supplemented with 10% bovine serum, 100 units/ml penicillin, and […] streptomycin in a humidified incubator containing 5% CO2 at 37° C.
(§2) The MTT assay was used to assess cytotoxicity. The cultured cells were harvested with trypsin and resuspended in a final concentration of 4×10^3 cells/well for KB-3-1; 7.5×10^3 cells/well for KB-C2; and 8×10^3 for all of the other cell lines used in this study. Cells were seeded evenly in 96-well multiplates. […] After 68 h of incubation, 20 μl of the MTT solution (4 mg/ml) was added to each well, and the plate was further incubated for 4 h at 37° C., allowing viable cells to convert the yellow-colored MTT into dark-blue formazan crystals. Subsequently, the medium was discarded, and 100 μl of DMSO was added into each well to dissolve the formazan crystals, generating purple color. The absorbance was determined at 570 nm by an OPSYS Microplate Reader from DYNEX Technologies, Inc. (Chantilly, Va.). […] The degree of the reversal of multidrug resistance (MDR) was calculated by dividing the IC50 of an anticancer drug, e.g., an antineoplastic or chemotherapeutic drug (agent, compound), in a cell type in the absence of a reversal agent by the IC50 of the anticancer drug in the same cell type in the presence of the reversal agent. The IC50 values were calculated from survival curves using the Bliss method.

[2] = test system: KB-C2 (ABCB1); experiment: MTT cytotoxicity/reversal assay (Example 1); format: cell-based, human
Experimental: as §1, §2

[3] = test system: HEK293/pcDNA3.1; experiment: MTT cytotoxicity/reversal assay (Example 1); format: cell-based
Experimental: as §1, §2

[4] = test system: HEK/ABCB1 (ABCB1); experiment: MTT cytotoxicity/reversal assay (Example 1); settings: HEK/ABCB1
Experimental: The KB-C2 and KB-3-1 were kindly provided by Dr. Akiyama (Kagoshima University, Japan). […] Similarly, the HEK/MRP1 (ABCC1) and HEK/ABCB1 cells were generated by transfecting the HEK293 cells with either the MRP1 expression vector or the ABCB1 expression vector. All of the cell lines were grown in Dulbecco's modified Eagle's medium (DMEM) supplemented with 10% bovine serum, 100 units/ml penicillin, and […] streptomycin in a humidified incubator containing 5% CO2 at 37° C.
as §2

[5] = test system: HEK 293-pcDNA-3.1; experiment: MTT cytotoxicity assay (Example 4); format: cell-based; settings: for fold-resistance, paclitaxel / fold-resistance, docetaxel / fold-resistance, vinblastine / fold-resistance, cisplatin: HEK 293-pcDNA-3.1
Experimental: (§3) The MRP7 cDNA was generously provided by Dr. Gary Kruh (University of Illinois, Chicago, Ill.) and inserted into the pcDNA3.1 expression vector. […] Individual colonies were selected in medium containing G418 (1 mg/ml) and cultured for further analysis.
(§4) MTT colorimetric assay was performed to analyze the drug sensitivity as previously described (Shi et al. (2007) Cancer Res. 67:11012-20). HEK293-pcDNA3.1 and HEK/MRP7 cells were seeded into 96-well plates in triplicate at 6000 cells/well.
(§5) After drug incubation of 68 h, 20 μl MTT solution (4 mg/ml) was added into each well. […] The Bliss method was used to calculate the IC50 values according to survival curves.

[6] = test system: HEK/MRP7; experiment: MTT cytotoxicity assay (Example 4); format: cell-based;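 note: drug IC50 in HEK/MRP7 divided by IC50 in parental HEK293-pcDNA3.1 cells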
Experimental: as §3, §4, §5

[7] = test system: KB-C2 cells (ABCB1); experiment: [^3H]-paclitaxel accumulation (Example 1); format: cell-based, human
Experimental: The intracellular accumulation of [^3H]-paclitaxel was measured as follows. […] Intracellular paclitaxel accumulation was measured by incubating cells with 0.1 μM [^3H]-paclitaxel for 2 h in the presence or absence of the reversal agents at 37° C. The cells were washed three times with ice-cold PBS, then suspended in fresh medium with or without reversal agents at 37° C. Aliquots of the extracellular medium (40 μl) were collected at various time points (0, 60, 120 min), and finally the cells were collected and lysed in 10 mM lysis buffer (pH 7.4, containing 1% Triton X-100 and 0.2% SDS). Each sample was placed in scintillation fluid and the radioactivity was measured in a Packard TRI-CARB1 1900CA liquid scintillation analyzer from Packard Instrument Company, Inc. (Downers Grove, Ill.).

[8] = test system: HEK/MRP7 cells; experiment: [^3H]-paclitaxel accumulation (Example 4); format: cell-based; settings: for increase of intracellular accumulation of [^3H]-paclitaxel: 5 μM, 2 h
Experimental: (§6) The effect of PDE5 inhibitors on the intracellular accumulation of paclitaxel in HEK293-pcDNA3.1 and HEK/MRP7 cells was measured using [^3H]-paclitaxel. […] For efflux studies, the cells were treated the same as in the drug accumulation study, and then washed three times with ice-cold PBS, and suspended in fresh medium with or without PDE5 inhibitors. Aliquots were evenly collected at various time points (0, 30, 60, and 120 min). Samples from both accumulation and efflux experiments were washed with ice-cold PBS three times and placed in scintillation fluid, and the radioactivity was measured in a Packard TRI-CARB® 1900CA liquid scintillation analyzer from Packard Instrument Company, Inc. (Downers Grove, Ill.).

[9] = test system: HEK/MRP7 cells; experiment: [^3H]-paclitaxel efflux (Example 4); format: cell-based; settings: for accumulated [^3H]-paclitaxel remaining in cells: absence of PDE5 inhibitors; for percentage of intracellular [^3H]-paclitaxel: 5 μM PDE5 inhibitor
Experimental: as §6

[10] = HEK293/pcDNA3.1 (Table 6), +10 μM reversal agent
[11] = HEK293/pcDNA3.1, +5 μM reversal agent
[12] = HEK293/pcDNA3.1, +10 μM reversal agent

## CC(=O)O[C@H]1C(=O)[C@@]2(C)[C@H]([C@H](OC(=O)c3ccccc3)[C@]3(O)C[C@H](OC(=O)[C@H](O)[C@@H](NC(=O)c4ccccc4)c4ccccc4)C(C)=C1C3(C)C)[C@]1(OC(C)=O)CO[C@@H]1C[C@@H]2O [Paclitaxel, paclitaxel]
[1]; alone
  fold reversal, paclitaxel: (1.00)
[2]; alone
  fold reversal, paclitaxel: (1.00)
[3]; HEK293/pcDNA3.1, alone
  fold reversal, paclitaxel: (1.00)
[4]; alone
  fold reversal, paclitaxel: (1.00)
[5]; alone
  fold-resistance, paclitaxel: (1.0)^b
[5]; read-out: IC50 of paclitaxel
  IC50: 11.6 ± 1.33 nM
[6]; alone
  fold-resistance, paclitaxel: (9.21)
[7]; no reversal agent
  intracellular concentration of paclitaxel relative to parental KB-3-1 cells: approximately 55%
[8]; no inhibitor
  intracellular concentration of [^3H]-paclitaxel relative to parental HEK293-pcDNA3.1: 28.5%
[9]; 30 min
  accumulated [^3H]-paclitaxel remaining in cells: 62.43%
[9]; 60 min
  accumulated [^3H]-paclitaxel remaining in cells: 39.47%
[9]; 120 min
  accumulated [^3H]-paclitaxel remaining in cells: 23.44%

## CN1CC(=O)N2[C@H](c3ccc4c(c3)OCO4)c3[nH]c4ccccc4c3C[C@@H]2C1=O [Tadalafil, tadalafil]
[1]; +5 μM reversal agent
  fold reversal, cisplatin: (0.96)
  fold reversal, colchicine: (0.86)
  fold reversal, paclitaxel: (0.93)
[1]; +10 μM reversal agent
  fold reversal, cisplatin: (1.06)
  fold reversal, colchicine: (0.89)
  fold reversal, paclitaxel: (1.02)
[2]; +5 μM reversal agent
  fold reversal, cisplatin: (1.01)
  fold reversal, colchicine: (4.19)
  fold reversal, paclitaxel: (2.53)
[2]; +10 μM reversal agent
  fold reversal, cisplatin: (0.93)
  fold reversal, colchicine: (6.38)
  fold reversal, paclitaxel: (4.48)
[3]; [10]
  fold reversal, vincristine: (1.09)
[3]; [11]
  fold reversal, cisplatin: (0.99)
  fold reversal, paclitaxel: (0.99)
  fold reversal, vincristine: (1.15)
[3]; [12]
  fold reversal, SN-38: (0.96)
  fold reversal, cisplatin: (1.12)
  fold reversal, paclitaxel: (1.21)
  fold reversal, vincristine: (1.35)
[4]; +5 μM reversal agent
  fold reversal, cisplatin: (0.94)
  fold reversal, paclitaxel: (1.37)
  fold reversal, vincristine: (1.50)
[4]; +10 μM reversal agent
  fold reversal, cisplatin: (1.09)
  fold reversal, paclitaxel: (2.26)
  fold reversal, vincristine: (2.45)
[5]; +1.25 μM reversal agent
  fold-resistance, docetaxel: (1.09)
  fold-resistance, paclitaxel: (1.07)
  fold-resistance, vinblastine: (1.06)
[5]; +5 μM reversal agent
  fold-resistance, cisplatin: (1.11)
  fold-resistance, docetaxel: (1.02)
  fold-resistance, paclitaxel: (0.93)
  fold-resistance, vinblastine: (0.95)
[6]; +1.25 μM reversal agent
  fold-resistance, docetaxel: (10.91)
  fold-resistance, paclitaxel: (8.06)
  fold-resistance, vinblastine: (4.58)
[6]; +5 μM reversal agent
  fold-resistance, cisplatin: (1.12)
  fold-resistance, docetaxel: (8.35)
  fold-resistance, paclitaxel: (5.87)
  fold-resistance, vinblastine: (3.62)
[7]; 10 μM
  effect on paclitaxel accumulation: had significant effects on paclitaxel accumulation
[8]
  increase of intracellular accumulation of [^3H]-paclitaxel: 2.1 fold
[9]; 30 min
  percentage of intracellular [^3H]-paclitaxel: 76.44%
[9]; 60 min
  percentage of intracellular [^3H]-paclitaxel: 63.41%
[9]; 120 min
  percentage of intracellular [^3H]-paclitaxel: 46.48%

## CCCc1nc(C)c2c(=O)[nH]c(-c3cc(S(=O)(=O)N4CCN(CC)CC4)ccc3OCC)nn12 [Vardenafil, vardenafil]
[1]; +5 μM reversal agent
  fold reversal, cisplatin: (0.89)
  fold reversal, colchicine: (0.90)
  fold reversal, paclitaxel: (0.89)
[1]; +10 μM reversal agent
  fold reversal, cisplatin: (0.93)
  fold reversal, colchicine: (0.93)
  fold reversal, paclitaxel: (0.92)
[2]; +5 μM reversal agent
  fold reversal, cisplatin: (0.87)
  fold reversal, colchicine: (27.6)
  fold reversal, paclitaxel: (26.2)
[2]; +10 μM reversal agent
  fold reversal, cisplatin: (0.96)
  fold reversal, colchicine: (184.8)
  fold reversal, paclitaxel: (54.1)
[3]; [10]
  fold reversal, vincristine: (0.92)
[3]; [11]
  fold reversal, cisplatin: (1.06)
  fold reversal, paclitaxel: (1.09)
  fold reversal, vincristine: (0.88)
[3]; [12]
  fold reversal, SN-38: (1.10)
  fold reversal, cisplatin: (1.00)
  fold reversal, paclitaxel: (1.18)
  fold reversal, vincristine: (1.19)
[4]; +5 μM reversal agent
  fold reversal, cisplatin: (0.95)
  fold reversal, paclitaxel: (3.86)
  fold reversal, vincristine: (4.10)
[4]; +10 μM reversal agent
  fold reversal, cisplatin: (1.09)
  fold reversal, paclitaxel: (8.69)
  fold reversal, vincristine: (11.60)
[5]; +1.25 μM reversal agent
  fold-resistance, docetaxel: (1.0)
  fold-resistance, paclitaxel: (0.93)
  fold-resistance, vinblastine: (0.96)
[5]; +5 μM reversal agent
  fold-resistance, cisplatin: (1.07)
  fold-resistance, docetaxel: (0.80)
  fold-resistance, paclitaxel: (0.79)
  fold-resistance, vinblastine: (0.85)
[6]; +1.25 μM reversal agent
  fold-resistance, docetaxel: (5.56)
  fold-resistance, paclitaxel: (2.99)
  fold-resistance, vinblastine: (3.01)
[6]; +5 μM reversal agent
  fold-resistance, cisplatin: (1.09)
  fold-resistance, docetaxel: (1.19)
  fold-resistance, paclitaxel: (1.06)
  fold-resistance, vinblastine: (1.11)
[7]; 10 μM
  increase of intracellular accumulation of paclitaxel: 1.6 fold
[8]
  increase of intracellular accumulation of [^3H]-paclitaxel: 3.7 fold
[9]; 30 min
  percentage of intracellular [^3H]-paclitaxel: 95.34%
[9]; 60 min
  percentage of intracellular [^3H]-paclitaxel: 93.58%
[9]; 120 min
  percentage of intracellular [^3H]-paclitaxel: 63.92%
